This passage reports ED90, IC50 and inhibition results from ChEMBL document CHEMBL1127172, “Novel pseudosymmetric inhibitors of HIV-1 protease” (Bioorg Med Chem Lett, 1993).

The structures appear in SMILES notation.

Chain of Cathepsin D (P07339 65-162 limits assumed): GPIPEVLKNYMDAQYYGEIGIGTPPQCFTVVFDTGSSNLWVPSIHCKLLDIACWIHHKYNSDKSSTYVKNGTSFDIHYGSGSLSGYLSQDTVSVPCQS
Chain of Cathepsin D (P07339 169-412 limits assumed): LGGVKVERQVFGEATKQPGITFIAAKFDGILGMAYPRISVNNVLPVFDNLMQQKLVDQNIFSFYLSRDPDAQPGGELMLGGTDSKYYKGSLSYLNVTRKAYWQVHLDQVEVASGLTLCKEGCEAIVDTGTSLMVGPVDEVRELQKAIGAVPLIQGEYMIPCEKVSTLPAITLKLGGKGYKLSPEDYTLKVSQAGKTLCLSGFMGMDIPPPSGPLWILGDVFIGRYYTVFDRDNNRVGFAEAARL

One assay concerns MT2. Put plainly: The compound was tested for its antiviral activity against HIV-1LAV virus infected MT-2 cells. The format is functional, Homo sapiens.
`Cc1cn([C@H]2C[C@H](N=[N+]=[N-])[C@@H](CO)O2)c(=O)[nH]c1=O` [ZIDOVUDINE] returned an ED90 of 300 nM.

For a further assay, the system named is Human immunodeficiency virus 1. Put plainly: Antiviral activity against HIV-1 LAV virus infected MT-2 cells with reference to AZT (ED90=0.3 uM). The class given is functional, MT2.
`CC(C)[C@H](NC(=O)OCc1ccccc1)C(=O)N[C@@H](Cc1ccccc1)[C@@H](O)CN(CC1CCCCC1)NC(=O)[C@@H](NC(=O)OCc1ccccc1)C(C)C` gave an ED90 of 1000 nM.
For `CC(C)[C@H](NC(=O)OCc1ccccc1)C(=O)N[C@@H](Cc1ccccc1)[C@@H](O)CN(Cc1ccccc1)NC(=O)[C@H](NC(=O)OCc1ccccc1)C(C)C`, the ED90 is 100 nM.
As to `CC(=O)N[C@H](C(=O)N[C@@H](Cc1ccccc1)[C@@H](O)CN(Cc1ccccc1)NC(=O)[C@H](NC(C)=O)C(C)C)C(C)C`, the ED90 was 10000 nM.
The compound `CC(=O)N[C@H](C(=O)N[C@@H](Cc1ccccc1)[C@@H](O)CN(Cc1ccc(C#N)cc1)NC(=O)[C@@H](NC(C)=O)C(C)C)C(C)C` displayed an ED90 above 10000 nM.
Same read-out and setting: for `CC(C)CN(C[C@H](O)[C@H](Cc1ccccc1)NC(=O)[C@@H](NC(=O)OCc1ccccc1)C(C)C)NC(=O)[C@@H](NC(=O)OCc1ccccc1)C(C)C` the value was above 1000 nM; for `CC(=O)N[C@H](C(=O)N[C@@H](Cc1ccccc1)[C@@H](O)CN(CC(C)C)NC(=O)[C@@H](NC(C)=O)C(C)C)C(C)C`, above 1000 nM.
The same measure, in the same setting: for `CC(=O)N[C@H](C(=O)N[C@@H](Cc1ccccc1)[C@@H](O)CN(CC1CCCCC1)NC(=O)[C@@H](NC(C)=O)C(C)C)C(C)C` the value was 1000 nM.
Still for that read-out and setting: for `CC(=O)N[C@H](C(=O)N[C@@H](Cc1ccccc1)[C@@H](O)CN(Cc1ccc(F)cc1)NC(=O)[C@@H](NC(C)=O)C(C)C)C(C)C` the value was 10000 nM; for `CC(C)[C@H](NC(=O)OCc1ccccc1)C(=O)N[C@@H](Cc1ccccc1)[C@@H](O)CN(Cc1ccc(F)cc1)NC(=O)[C@@H](NC(=O)OCc1ccccc1)C(C)C`, 1000 nM.
In turn, `CC(C)[C@H](NC(=O)OCc1ccccc1)C(=O)N[C@@H](Cc1ccccc1)[C@@H](O)CN(Cc1ccc(C#N)cc1)NC(=O)[C@@H](NC(=O)OCc1ccccc1)C(C)C` yielded an ED90 of 100 nM.

The next assay addresses T1, Renin (Homo sapiens, UniProt P00797).
T1 sequence (P00797 whole entry): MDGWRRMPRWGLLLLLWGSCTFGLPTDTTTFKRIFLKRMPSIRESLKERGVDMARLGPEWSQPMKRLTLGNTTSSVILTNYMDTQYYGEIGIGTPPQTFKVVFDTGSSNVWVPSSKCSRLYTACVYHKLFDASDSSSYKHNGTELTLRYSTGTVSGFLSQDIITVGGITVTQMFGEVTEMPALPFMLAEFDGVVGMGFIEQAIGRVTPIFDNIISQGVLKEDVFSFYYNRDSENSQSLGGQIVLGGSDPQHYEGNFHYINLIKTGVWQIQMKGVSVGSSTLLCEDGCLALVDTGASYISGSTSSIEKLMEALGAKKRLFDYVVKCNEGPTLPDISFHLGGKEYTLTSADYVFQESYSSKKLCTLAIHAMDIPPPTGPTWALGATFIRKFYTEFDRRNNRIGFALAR
Put plainly: The compound was tested for its inhibitory activity against human renin.
For `CC(=O)N[C@H](C(=O)N[C@@H](Cc1ccccc1)[C@@H](O)CN(CC1CCCCC1)NC(=O)[C@@H](NC(C)=O)C(C)C)C(C)C`, the half-maximal inhibitory concentration (IC50) (usually the concentration needed to halve the response being measured) is above 58000 nM.

The next assay deals with T2, Cathepsin E (Homo sapiens, UniProt P14091).
T2 sequence (P14091 whole entry): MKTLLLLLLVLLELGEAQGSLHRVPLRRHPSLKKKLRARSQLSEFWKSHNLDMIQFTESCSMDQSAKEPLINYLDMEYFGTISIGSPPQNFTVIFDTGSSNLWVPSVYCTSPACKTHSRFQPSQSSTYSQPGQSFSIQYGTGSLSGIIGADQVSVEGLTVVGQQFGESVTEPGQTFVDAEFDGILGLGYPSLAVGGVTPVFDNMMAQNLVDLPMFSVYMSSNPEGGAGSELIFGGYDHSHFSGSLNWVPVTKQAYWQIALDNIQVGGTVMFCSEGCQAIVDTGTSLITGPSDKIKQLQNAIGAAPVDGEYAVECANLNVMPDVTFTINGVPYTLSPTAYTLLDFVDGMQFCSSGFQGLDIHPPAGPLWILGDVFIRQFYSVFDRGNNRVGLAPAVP
Put plainly: The compound was tested for its inhibitory activity against human cathepsin E.
With `CC(=O)N[C@H](C(=O)N[C@@H](Cc1ccccc1)[C@@H](O)CN(CC1CCCCC1)NC(=O)[C@@H](NC(C)=O)C(C)C)C(C)C`, the IC50 was determined as 2000 nM.

In a further assay the target is Human immunodeficiency virus type 1 protease (Human immunodeficiency virus 1, UniProt Q72874). Put plainly: In vitro inhibition of HIV-1 protease at pH 6 using 164 uM peptide substrate.
For `CC(C)[C@H](NC(=O)OCc1ccccc1)C(=O)N[C@@H](Cc1ccccc1)[C@@H](O)CN(CC1CCCCC1)NC(=O)[C@@H](NC(=O)OCc1ccccc1)C(C)C`, the IC50 was determined as 95 nM.
The compound `CC(C)[C@H](NC(=O)OCc1ccccc1)C(=O)N[C@@H](Cc1ccccc1)[C@@H](O)CN(Cc1ccccc1)NC(=O)[C@H](NC(=O)OCc1ccccc1)C(C)C` had an IC50 of 33 nM.
Still for that read-out and setting: then `CC(=O)N[C@H](C(=O)N[C@@H](Cc1ccccc1)[C@@H](O)CN(Cc1ccccc1)NC(=O)[C@H](NC(C)=O)C(C)C)C(C)C`, with 30 nM.
`CC(=O)N[C@H](C(=O)N[C@@H](Cc1ccccc1)[C@@H](O)CN(Cc1ccc(C#N)cc1)NC(=O)[C@@H](NC(C)=O)C(C)C)C(C)C`: the IC50 came to 50 nM.
The same measure, in the same setting: then `CC(C)CN(C[C@H](O)[C@H](Cc1ccccc1)NC(=O)[C@@H](NC(=O)OCc1ccccc1)C(C)C)NC(=O)[C@@H](NC(=O)OCc1ccccc1)C(C)C`, with 10 nM.
Same read-out and setting: for `CC(=O)N[C@H](C(=O)N[C@@H](Cc1ccccc1)[C@@H](O)CN(CC(C)C)NC(=O)[C@@H](NC(C)=O)C(C)C)C(C)C` the value was 45 nM.
Regarding `CC(=O)N[C@H](C(=O)N[C@@H](Cc1ccccc1)[C@@H](O)CN(CC1CCCCC1)NC(=O)[C@@H](NC(C)=O)C(C)C)C(C)C`, inhibition was half-maximal at 9 nM (IC50).
Same read-out and setting: then `CC(=O)N[C@H](C(=O)N[C@@H](Cc1ccccc1)[C@@H](O)CN(Cc1ccc(F)cc1)NC(=O)[C@@H](NC(C)=O)C(C)C)C(C)C`, with 28 nM; and `CC(C)[C@H](N)C(=O)N[C@@H](Cc1ccccc1)[C@@H](O)CN(Cc1ccccc1)NC(=O)[C@H](N)C(C)C`, with above 100000 nM; and `CC(C)[C@H](NC(=O)c1ccc2ccccc2n1)C(=O)N[C@@H](Cc1ccccc1)[C@@H](O)CN(Cc1ccccc1)NC(=O)[C@H](NC(=O)c1ccc2ccccc2n1)C(C)C`, with 65 nM.
`CC(C)[C@H](NC(=O)OC(C)(C)C)C(=O)N[C@@H](Cc1ccccc1)[C@@H](O)CN(Cc1ccccc1)NC(=O)[C@H](NC(=O)OC(C)(C)C)C(C)C`: the IC50 was 52000 nM.
Same read-out and setting: then `CC(C)[C@H](NC(=O)OCc1ccccc1)C(=O)N[C@@H](Cc1ccccc1)[C@@H](O)CN(Cc1ccc(F)cc1)NC(=O)[C@@H](NC(=O)OCc1ccccc1)C(C)C`, with 22 nM.
The compound `CC(C)(C)OC(=O)N[C@@H](Cc1ccccc1)[C@@H](O)CN(Cc1ccccc1)NC(=O)OC(C)(C)C` registered an IC50 of around 50000 nM.
Consider `CC(C)[C@H](NC(=O)Cc1ccccc1)C(=O)N[C@@H](Cc1ccccc1)[C@@H](O)CN(Cc1ccccc1)NC(=O)[C@H](NC(=O)Cc1ccccc1)C(C)C`, for which half-maximal inhibition (IC50) required 360 nM.
On the same count and under the same terms, for `CC(C)[C@H](NC(=O)Cc1cccnc1)C(=O)N[C@@H](Cc1ccccc1)[C@@H](O)CN(Cc1ccccc1)NC(=O)[C@H](NC(=O)Cc1cccnc1)C(C)C` the value was 500 nM; for `CC(C)[C@H](NC(=O)OCc1ccccc1)C(=O)NN(Cc1ccccc1)C[C@H](O)[C@H](Cc1ccccc1)NC(=O)[C@H](NC(=O)OCc1ccccc1)C(C)C`, above 100000 nM.
As to `CC(C)[C@H](NC(=O)N1CCOCC1)C(=O)N[C@@H](Cc1ccccc1)[C@@H](O)CN(Cc1ccccc1)NC(=O)[C@H](NC(=O)N1CCOCC1)C(C)C`, the IC50 was 2000 nM.
Consider `CC(C)[C@H](NC(=O)OCc1ccccc1)C(=O)N[C@@H](Cc1ccccc1)[C@@H](O)CN(Cc1ccc(C#N)cc1)NC(=O)[C@@H](NC(=O)OCc1ccccc1)C(C)C`, for which half-maximal inhibition (IC50) was put at 24 nM.

A further assay deals with Human immunodeficiency virus type 1 protease (Human immunodeficiency virus 1) (UniProt Q72874). Put plainly: The compound was tested in vitro for the % inhibition of HIV-1 protease at 100 uM concentration.
In the case of `CC(C)[C@H](N)C(=O)N[C@@H](Cc1ccccc1)[C@@H](O)CN(Cc1ccccc1)NC(=O)[C@H](N)C(C)C`, the inhibition (usually the share of the control response that was lost under treatment) came out at 32%.
On the same count and under the same terms, then `CC(C)[C@H](NC(=O)OCc1ccccc1)C(=O)NN(Cc1ccccc1)C[C@H](O)[C@H](Cc1ccccc1)NC(=O)[C@H](NC(=O)OCc1ccccc1)C(C)C`, with 40%.

A further assay addresses Cathepsin D (Homo sapiens, UniProt P07339). Put plainly: The compound was tested for its inhibitory activity against human cathepsin D.
For `CC(=O)N[C@H](C(=O)N[C@@H](Cc1ccccc1)[C@@H](O)CN(CC1CCCCC1)NC(=O)[C@@H](NC(C)=O)C(C)C)C(C)C`, the 50% inhibitory concentration (IC50) turned out to be 7500 nM.

For another assay, the target named is T3, Gastricsin (Homo sapiens, UniProt P20142).
T3 sequence (P20142 whole entry): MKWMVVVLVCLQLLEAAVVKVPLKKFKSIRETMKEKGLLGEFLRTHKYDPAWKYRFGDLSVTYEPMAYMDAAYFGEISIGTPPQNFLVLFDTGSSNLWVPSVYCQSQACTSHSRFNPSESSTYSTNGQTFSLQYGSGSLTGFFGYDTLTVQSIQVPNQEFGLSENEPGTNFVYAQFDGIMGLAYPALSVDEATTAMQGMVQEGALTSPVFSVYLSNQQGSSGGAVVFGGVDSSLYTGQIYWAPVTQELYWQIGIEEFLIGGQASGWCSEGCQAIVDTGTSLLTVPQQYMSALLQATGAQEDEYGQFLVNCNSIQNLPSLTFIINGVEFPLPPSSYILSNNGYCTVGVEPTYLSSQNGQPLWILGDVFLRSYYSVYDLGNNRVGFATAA
Put plainly: The compound was tested for its inhibitory activity against human gastricsin.
`CC(=O)N[C@H](C(=O)N[C@@H](Cc1ccccc1)[C@@H](O)CN(CC1CCCCC1)NC(=O)[C@@H](NC(C)=O)C(C)C)C(C)C`: the IC50 came out at 1000 nM.
